# Like-named read-outs stand apart in the source and are kept apart here.
# Test system: Enterobacterales
# Assay: MIC, broth microdilution, CDC/FDA Antibiotic Resistance Isolate Bank (Example 7, Tables 8, 11, 12)
# Assay type: cell-based
# Conditions: for MIC: read-out: MIC
compound,measurement,setting,value
"C[C@H]1COc2c(N3CCN(C)CC3)c(F)cc3c(=O)c(C(=O)O)cn1c23 [Levofloxacin, levofloxacin]",MIC,"Citrobacter freundii, KUB No. 5654, AR Bank # 157",> 64 µg/mL
same,MIC,"Enterobacter cloacae, Enterobacter cloacae KUB No. 5792, AR Bank #448",> 64 µg/mL
same,MIC,"Enterobacter cloacae, Enterobacter cloacae KUB No. 5807, AR Bank #501",1 µg/mL
same,MIC,"Enterobacter cloacae, Enterobacter cloacae KUB No. 5808, AR Bank #502",8 µg/mL
same,MIC,"Enterobacter cloacae, Enterobacter cloacae complex, KUB No. 5661, AR Bank # 164",0.12 µg/mL
same,MIC,"Enterobacter cloacae, Enterobacter cloacae group, KUB No. 5629, AR Bank # 132",0.06 µg/mL
same,MIC,"Enterobacter cloacae, KUB No. 5529, AR Bank# 32",1 µg/mL
same,MIC,"Enterobacter cloacae, KUB No. 5535, AR Bank# 38",64 µg/mL
same,MIC,"Enterobacter cloacae, KUB No. 5547, AR Bank# 50",8 µg/mL
same,MIC,"Enterobacter cloacae, KUB No. 5550, AR Bank# 53",32 µg/mL
same,MIC,"Enterobacter cloacae, KUB No. 5557, AR Bank# 60",0.06 µg/mL
same,MIC,"Enterobacter cloacae, KUB No. 5660, AR Bank # 163",32 µg/mL
same,MIC,"Enterobacter cloacae, KUB No. 5761, AR Bank # 365",4 µg/mL
same,MIC,"Enterobacter cloacae, KUB No. 5762, AR Bank # 366",0.5 µg/mL
same,MIC,"Enterobacter cloacae, KUB No. 5763, AR Bank # 367",1 µg/mL
same,MIC,"Enterobacter cloacae, KUB No. 5778, AR Bank # 432",0.12 µg/mL
same,MIC,"Enterobacter cloaccae, KUB No. 5651, AR Bank # 154",1 µg/mL
same,MIC,"Enterobacter clooreae, KUB No. 5633, AR Bank # 136",16 µg/mL
same,MIC,"Escherichia coli, Escherichia coli KUB No. 5783, AR Bank #437",32 µg/mL
same,MIC,"Escherichia coli, Escherichia coli KUB No. 5794, AR Bank #450",0.12 µg/mL
same,MIC,"Escherichia coli, Escherichia coli KUB No. 5795, AR Bank #451",32 µg/mL
same,MIC,"Escherichia coli, Escherichia coli KUB No. 5796, AR Bank #452",64 µg/mL
same,MIC,"Escherichia coli, Escherichia coli KUB No. 5803, AR Bank #861",16 µg/mL
same,MIC,"Escherichia coli, KUB No. 5601, AR Bank # 104",16 µg/mL
same,MIC,"Escherichia coli, KUB No. 5611, AR Bank # 114",32 µg/mL
same,MIC,"Escherichia coli, KUB No. 5615, AR Bank # 118",32 µg/mL
same,MIC,"Escherichia coli, KUB No. 5616, AR Bank # 119",32 µg/mL
same,MIC,"Escherichia coli, KUB No. 5625, AR Bank # 128",32 µg/mL
same,MIC,"Escherichia coli, KUB No. 5634, AR Bank # 137",64 µg/mL
same,MIC,"Escherichia coli, KUB No. 5646, AR Bank # 149",8 µg/mL
same,MIC,"Escherichia coli, KUB No. 5647, AR Bank # 150",32 µg/mL
same,MIC,"Escherichia coli, KUB No. 5648, AR Bank # 151",32 µg/mL
same,MIC,"Escherichia coli, KUB No. 5659, AR Bank # 162",32 µg/mL
same,MIC,"Escherichia coli, KUB No. 5764, AR Bank # 368",0.06 µg/mL
same,MIC,"Escherichia coli, KUB No. 5765, AR Bank # 369",0.06 µg/mL
same,MIC,"Escherichia coli, KUB No. 5766, AR Bank # 370",16 µg/mL
same,MIC,"Escherichia coli, KUB No. 5767, AR Bank # 371",16 µg/mL
same,MIC,"Escherichia coli, KUB No. 5768, AR Bank # 372",16 µg/mL
same,MIC,"Escherichia coli, KUB No. 5769, AR Bank # 373",32 µg/mL
same,MIC,"Escherichia coli, KUB No. 5770, AR Bank # 374",32 µg/mL
same,MIC,"Escherichia coli, KUB No. 5774, AR Bank # 378",8 µg/mL
same,MIC,"Escherichia coli, KUB No. 5779, AR Bank # 433",32 µg/mL
same,MIC,"Escherichia coli, KUB No. 5780, AR Bank # 434",16 µg/mL
same,MIC,"Escherichia coli, KUB No. 5781, AR Bank # 435",32 µg/mL
same,MIC,"Escherichia, KUB No. 57, AR Bank # 436 (row cut off)",32 µg/mL
same,MIC,"Klebsiella aerogenes, Enterobacter aerogenes, KUB No. 5658, AR Bank # 161",0.12 µg/mL
same,MIC,"Klebsiella aerogenes, Enterobacter aerogenes, KUB No. 5777, AR Bank # 431",1 µg/mL
same,MIC,"Klebsiella oxytoca, KUB No. 5644, AR Bank # 147",0.06 µg/mL
same,MIC,"Klebsiella oxytoca, KUB No. 5771, AR Bank # 375",0.12 µg/mL
same,MIC,"Klebsiella oxytoca, KUB No. 5776, AR Bank # 380",0.5 µg/mL
same,MIC,"Klebsiella ozaenae, KUB No. 5548, AR Bank# 51",16 µg/mL
same,MIC,"Klebsiella pnemnonine, KUB No. 5758, AR Bank # 362",64 µg/mL
same,MIC,"Klebsiella pneumoniae, KUB No. 55, AR Bank# 47",64 µg/mL
same,MIC,"Klebsiella pneumoniae, KUB No. 5531, AR Bank# 34",0.5 µg/mL
same,MIC,"Klebsiella pneumoniae, KUB No. 5536, AR Bank# 39",8 µg/mL
same,MIC,"Klebsiella pneumoniae, KUB No. 5537, AR Bank# 40",32 µg/mL
same,MIC,"Klebsiella pneumoniae, KUB No. 5538, AR Bank# 41",8 µg/mL
same,MIC,"Klebsiella pneumoniae, KUB No. 5540, AR Bank# 43",2 µg/mL
same,MIC,"Klebsiella pneumoniae, KUB No. 5541, AR Bank# 44",8 µg/mL
same,MIC,"Klebsiella pneumoniae, KUB No. 5543, AR Bank# 46",32 µg/mL
same,MIC,"Klebsiella pneumoniae, KUB No. 5546, AR Bank# 49",> 64 µg/mL
same,MIC,"Klebsiella pneumoniae, KUB No. 5603, AR Bank # 106",> 64 µg/mL
same,MIC,"Klebsiella pneumoniae, KUB No. 5604, AR Bank # 107",64 µg/mL
same,MIC,"Klebsiella pneumoniae, KUB No. 5606, AR Bank # 109",> 64 µg/mL
same,MIC,"Klebsiella pneumoniae, KUB No. 5609, AR Bank # 112",16 µg/mL
same,MIC,"Klebsiella pneumoniae, KUB No. 5610, AR Bank # 113",16 µg/mL
same,MIC,"Klebsiella pneumoniae, KUB No. 5612, AR Bank # 115",32 µg/mL
same,MIC,"Klebsiella pneumoniae, KUB No. 5614, AR Bank # 117",4 µg/mL
same,MIC,"Klebsiella pneumoniae, KUB No. 5617, AR Bank # 120",64 µg/mL
same,MIC,"Klebsiella pneumoniae, KUB No. 5622, AR Bank # 125",64 µg/mL
same,MIC,"Klebsiella pneumoniae, KUB No. 5623, AR Bank # 126",0.12 µg/mL
same,MIC,"Klebsiella pneumoniae, KUB No. 5626, AR Bank # 129",64 µg/mL
same,MIC,"Klebsiella pneumoniae, KUB No. 5632, AR Bank # 135",64 µg/mL
same,MIC,"Klebsiella pneumoniae, KUB No. 5635, AR Bank # 138",> 64 µg/mL
same,MIC,"Klebsiella pneumoniae, KUB No. 5636, AR Bank # 139",8 µg/mL
same,MIC,"Klebsiella pneumoniae, KUB No. 5637, AR Bank # 140",16 µg/mL
same,MIC,"Klebsiella pneumoniae, KUB No. 5638, AR Bank # 141",8 µg/mL
same,MIC,"Klebsiella pneumoniae, KUB No. 5639, AR Bank # 142",8 µg/mL
same,MIC,"Klebsiella pneumoniae, KUB No. 5640, AR Bank # 143",64 µg/mL
same,MIC,"Klebsiella pneumoniae, KUB No. 5642, AR Bank # 145",32 µg/mL
same,MIC,"Klebsiella pneumoniae, KUB No. 5643, AR Bank # 146",64 µg/mL
same,MIC,"Klebsiella pneumoniae, KUB No. 5645, AR Bank # 148",64 µg/mL
same,MIC,"Klebsiella pneumoniae, KUB No. 5649, AR Bank # 152",32 µg/mL
same,MIC,"Klebsiella pneumoniae, KUB No. 5650, AR Bank # 153",> 64 µg/mL
same,MIC,"Klebsiella pneumoniae, KUB No. 5655, AR Bank # 158",16 µg/mL
same,MIC,"Klebsiella pneumoniae, KUB No. 5657, AR Bank # 160",0.12 µg/mL
same,MIC,"Klebsiella pneumoniae, KUB No. 5757, AR Bank # 361",64 µg/mL
same,MIC,"Klebsiella pneumoniae, KUB No. 5759, AR Bank # 363",64 µg/mL
same,MIC,"Klebsiella pneumoniae, KUB No. 5760, AR Bank # 364",64 µg/mL
same,MIC,"Klebsiella pneumoniae, KUB No. 5772, AR Bank # 376",16 µg/mL
same,MIC,"Klebsiella pneumoniae, Klebsiella pneumoniae KUB No. 5784, AR Bank #438",64 µg/mL
same,MIC,"Klebsiella pneumoniae, Klebsiella pneumoniae KUB No. 5797, AR Bank #453",64 µg/mL
same,MIC,"Klebsiella pneumoniae, Klebsiella pneumoniae KUB No. 5809, AR Bank #504",0.5 µg/mL
same,MIC,"Klebsiella pneumoniae, Klebsiella pneumoniae KUB No. 5810, AR Bank #505",1 µg/mL
same,MIC,"Klebsiella pneumoniae, Klebsiella pneumoniae KUB No. 5811, AR Bank #506",4 µg/mL
same,MIC,"Klebsiella pneumoniae, Klebsiella pneumoniae KUB No. 5812, AR Bank #507",> 64 µg/mL
same,MIC,"Klebsiella pneumoniae, Klebsiella pneumoniae KUB No. 5827, AR Bank #522",32 µg/mL
same,MIC,"Klebsiella pneumoniae, Klebsiella pneumoniae KUB No. 5828, AR Bank #523",4 µg/mL
same,MIC,"Klebsiella pneumoniae, Klebsiella pneumoniae KUB No. 5829, AR Bank #524",32 µg/mL
same,MIC,"Klebsiella pneumoniae, Klebsiella pneumoniae KUB No. 5830, AR Bank #525",64 µg/mL
same,MIC,"Kluyvera ascorbata, KUB No. 5641, AR Bank # 144",2 µg/mL
same,MIC,"Morganella morganii, KUB No. 5554, AR Bank# 57",8 µg/mL
same,MIC,"Morganella morganii, KUB No. 5630, AR Bank # 133",64 µg/mL
same,MIC,"Morganella morganii, Morganella morganii KUB No. 5824, AR Bank #519",0.12 µg/mL
same,MIC,"Proteus mirabilis, KUB No. 5556, AR Bank# 59",8 µg/mL
same,MIC,"Proteus mirabilis, KUB No. 5652, AR Bank # 155",> 64 µg/mL
same,MIC,"Proteus mirabilis, KUB No. 5653, AR Bank # 156",2 µg/mL
same,MIC,"Proteus mirabilis, KUB No. 5656, AR Bank # 159",2 µg/mL
same,MIC,"Proteus mirabilis, KUB No. 5773, AR Bank # 377",16 µg/mL
same,MIC,"Proteus mirabilis, KUB No. 5775, AR Bank # 379",4 µg/mL
same,MIC,"Raoultella ornithinolvtica, KUB No. 5631, AR Bank # 134",0.5 µg/mL
same,MIC,"Salmonella enterica, Salmonella Senftenberg, KUB No. 5624, AR Bank # 127",32 µg/mL
same,MIC,"Serratia marcescens, KUB No. 5596, AR Bank # 99",0.25 µg/mL
same,MIC,"Serratia marcescens, KUB No. 5618, AR Bank # 121",0.12 µg/mL
same,MIC,"Serratia marcescens, KUB No. 5619, AR Bank # 122",0.5 µg/mL
same,MIC,"Serratia marcescens, KUB No. 5620, AR Bank # 123",0.25 µg/mL
same,MIC,"Serratia marcescens, KUB No. 5621, AR Bank # 124",0.5 µg/mL
same,MIC,"Serratia marcescens, KUB No. 5627, AR Bank # 130",0.12 µg/mL
same,MIC,"Serratia marcescens, KUB No. 5628, AR Bank # 131",0.5 µg/mL
same,MIC,"Serratia marcescens, Serratia marcescens KUB No. 5825, AR Bank #520",0.5 µg/mL
same,MIC,"Serratia marcescens, Serratia marcescens KUB No. 5826, AR Bank #521",16 µg/mL
same,MIC50,"carbapenemase-producing Enterobacterales, Metallo-β-lactamase (N = 47), read-out: MIC50",32 µg/mL
same,MIC90,"carbapenemase-producing Enterobacterales, Metallo-β-lactamase (N = 47), read-out: MIC90",> 64 µg/mL

# — patent EP4635500A1, “THERAPEUTIC AGENT FOR BACTERIAL INFECTION” (Sumitomo Pharma Co., Ltd., priority 2022, dated 2024)
